From patent US20250025438A1, “Derivative of aspartic acid and use thereof in treatment of metabolic diseases such as hepatic fibrosis and non-alcoholic hepatitis” (SHENZHEN JINGTAI TECHNOLOGY CO., LTD., priority 2021, published 2025)
Where a name gives a salt, the structure may show the parent alone.

Assays:
Format in all cases: cell-based
[1] = test system: collagen I and collagen III; test: Semi-activated LX2 cells, qPCR: collagen I and collagen III at the mRNA level; settings: 48 hours, Q-PCR, Table 2
Summary of the method: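 LX-2 human hepatic stellate cells, adhered 12 h, were treated with 50 µM test compound for 48 h. Total RNA was extracted, and COL1A1, COL1A2 and COL3A1 mRNA were measured by SYBR Green qPCR.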

[2] = test system: NS3TP1; test: Regulation of NS3TP1 in semi-activated LX2 cells, qPCR; settings: LX-2 cells, 48 hours, Q-PCR, vs control group
Description: Test compounds were added to the LX-2 cells respectively, and total RNA in the cells was extracted 48 hours later. This experiment was performed strictly in accordance with the instructions of the Total RNA Kit. The steps were as follows (note: this experiment was performed on ice throughout the entire process, and special RNase-free tips were used throughout the entire process): • 1) The 12-well cell culture plate was taken out from the incubator, the cell culture medium was discarded, the cells were washed twice with 1 mL of 1×PBS, and a negative pressure suction device was used to fully remove PBS; • 2) 350 μL of TRK Lysis Buffer mixture/well was prepared as needed (mixture preparation method: 1 mL of TRKLysis Buffer+20 μL of β-mercaptoethanol), vortexed and mixed well. 350 μL was added to each well of the 12-well cell culture plate, and allowed to stand at room temperature for 5 minutes to fully lyse the cells; • 3) 70% ethanol/well was prepared as needed, vortexed and mixed well. 350 μL was added to each well of the 12-well cell culture plate, mixed well by shaking, and transferred to the spin column (spin column+collection tube were assembled); • 4) Centrifugation was performed at 4° C., 12000 g for 60 sec. The waste liquid was discarded after centrifugation, while the spin column was kept; • 5) 500 μL of RNA Wash Buffer I was added, centrifuged at 4° C., 12000 g for 60 sec, the waste liquid was discarded after centrifugation, and the collection column was kept; • 6) 500 μL of RNA Wash Buffer II (confirmed that ethanol had been added) was added, centrifuged at 4° C., 12000 g for 60 sec, the waste liquid was discarded after centrifugation, and the collection column was kept; • 7) step 6) was repeated once again, centrifugation was performed at 4° C., 12000 g for 90 sec, the waste liquid was discarded after centrifugation, and the collection column was kept; • 8) Centrifugation was performed at 4° C., 12000 g for 120 sec to ensure that the spin column was fully dried; • 9) The dried spin column was inserted into a new 1.5 mL EP tube, and 30 μL of DEPC water was added to the membrane in the center of the spin column. It should be careful not to touch the EP tube cover in this step. It was allowed to stand at room temperature for 5 minutes to ensure that the RNA was fully dissolved in DEPC water. Centrifugation was performed at 4° C., 12000 g for 60 sec, and the EP tube was kept; • 10) NanoDrop ultra-micro-volume spectrophotometer was used to detect RNA concentration;
5.2 Reverse transcription of RNA into cDNA: According to the instructions of PrimeScript™ RT reagent Kit (Perfect Real Time), the specific experimental steps were as follows:
5.3 Q-PCR detection of target gene expression: According to the instructions of Power SYBR® Green PCR Master Mix, the specific operations were as follows:
After the reaction was completed, the amplification curve and dissolution curve of Q-PCR were confirmed, and the relative quantification method ([…]) was used to perform data analysis on the experimental results.
LX2 cells were passaged and plated normally. […] After 48 hours, the cells were collected, total RNA was extracted, and the expression of NS3TP1 gene was detected using Q-PCR method.

[3] = test system: α-SMA; test: In vitro efficacy in semi-activated LX2 cells, qPCR: α-SMA; settings: 48 hours, Q-PCR; for inhibition at 50 µM: read-out: α-SMA mRNA inhibition rate; for inhibition of the expression of α-SMA at the mRNA level: Table 2
Summary of the method: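 LX-2 human hepatic stellate cells were plated, allowed to adhere for 12 hours, then exposed to test compound at 50 µM for 48 hours. Total RNA was extracted, reverse-transcribed to cDNA, and target mRNA quantified by SYBR Green qPCR using the relative quantification method.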

Row | Structure (SMILES) | inhibition of the expression of collagen I and collagen III at the mRNA level [1] | Up-regulation of NS3TP1 ([2]; 200 µM compound) | inhibition at 50 µM [3] [%] | inhibition of the expression of α-SMA at the mRNA level [3] | Up-regulation of NS3TP1 ([2]; test concentration 10 mM)
1 | N[C@@H](CCC(=O)O)C(=O)O [Compound 47] | could inhibit |  |  |  | 
2 | COC(=O)C[C@H](N)C(=O)O [Compound 6] | could inhibit | A (A represented that the up-regulation was 40% or above) | 10 to 25 | could inhibit | 
3 | COC(=O)[C@@H](N)CC(=O)O [Compound 4] | could inhibit |  | 25 to 50 | could inhibit | B (B represented that the up-regulation was 20~40%)
4 | COC(=O)C[C@H](N)C(=O)OCOC(=O)[C@@H](N)CC(=O)OC [Compound 54, 4-dimethyl O′1,01-methylene (2S,2'S)-bis (2-aminosuccinate) hydrochloride] | could inhibit | A (A represented that the up-regulation was 40% or above) |  | could inhibit | 
